What was measured:
HDAC-1 = target: T1, HDAC-1 (Homo sapiens, UniProt Q13547); experiment: Deacetylase fluorescence assay (HDAC-1); type: biochemical; conditions: read-out: HDAC-1 IC50
T1 construct: made in house
Description: Conventional methods are used to express deacetylase enzymes and purify them from lysed cells. The following example describes an exemplary procedure, however equivalent procedures are within the scope of the invention.
The cell line used is a derivative of 293 cells overexpressing a fusion of the gene encoding each deacetylase protein with a nucleotide sequence encoding the Flag marker.
Cells are grown in Optimem, 2% Fetal Calf Serum, Pen/Strep. For enzyme preparation, Lysis buffer (IPLS) is 50 mM Tris-HCl, pH 7.5, 120 mM NaCl, 0.5 mM EDTA and 0.5% Nonidet P-40, to which is added one tablet of Protease inhibitors (Roche 11836170001) per 10 ml buffer. Other buffers are IPHS, which is IPLS containing 1 M NaCl; TBS (Sigma #T5912) dilute 10× stock to 1× with dH2O; HD buffer: 10 mM Tris pH 8.0 (1M Stock) 10 mM NaCl (5M Stock), 10% glycerol, and for dialysis: 400 μM PMSF is added (for 2 L: use 8 ml 100 mM Stock). Protease inhibitors (Complete mini, Boehringer Mannheim), 1 tablet/10 mL are added to all buffers but not used in buffers for enzyme assays.
Cells are harvested without using trypsin, and most cells are obtained easily in PBS, with gentle striking or agitation of flasks if necessary. More adherent cells are scraped in PBS. Cells are grown in 500 cm^2 trays, from which about half of the media is aspirated (50 ml total), then cells are scraped in the rest of the media and transferred to a centrifuge tube. Trays are washed with 25 ml cold PBS, scraped again to collect additional cells, and centrifuged at 1500 rpm at 4° C. for 5 min. Cells are washed at least 3 times in PBS to remove growth media, pelleting cells after each wash by centrifugation at 1500 rpm for 5 minutes. After washing, PBS is removed and the resulting cell pellet frozen at −80° C. for storage prior to purification.
For purification, cells are resuspended in lysis buffer, 12 ml of IPLS for cells collected from 10 500 cm trays. Cells are lysed at 4° C. for 3 hrs with rocking, and debris is removed by centrifugation for 20 min at 17,000 rpm in 30 ml centrifuge tubes. If supernatant is not clear afterward, centrifugation of the supernatant is repeated. Protein concentration of the whole cell lysate is determined (generally in the range of about 2-5 mg/ml).
For immunoprecipitation per mg of protein, 15 μL of anti-Flag M2-Agarose Affinity beads (Sigma #A2220) is used. Beads are prepared by washing 3 times with 10× bead volume of PBS and 1 time with IPLS, with centrifugation of the washes at 1500 rpm for 5 min. Whole cell lysate is incubated with the Ab-beads overnight at 4° C. Then beads are centrifuged and washed in 5× volume of the following buffers: three times in IPLS (30 sec at 4° C., spin at 1500 RPM for 5 min); three times in IPHS; and three times in TBS buffer. After each centrifugation, the supernatant is aspirated, leaving the pellet as dry as possible but avoiding sucking up any of the beads.
To elute the enzyme, beads are resuspended in 5× bead volume of TBS with protease inhibitor (Roche 11836170001) 1 tablet/10 mL. Enzyme is eluted with 400 μg/mL Flag peptide (Sigma #F-3290) for 3 hrs at 4° C. on rotator. Then beads are centrifuged, and the supernatant is transferred to a new tube to which is added 1/10 volume of glycerol. The supernatant is transferred to a dialysis cassette (Pierce #66410) using a 3 cc syringe and 18 G needle, and is dialyze sup in 2 L HD buffer for 2 hrs at 4° C. (1 L/hour). The resulting purified deacetylase is divided into aliquots (300 μL/tube), is snap frozen in dry ice bath, and is stored at −80° C.
For assay of deacetylase an assay based on Deacetylase Fluorescent Activity Assay/Drug Discovery Kit (BioMol # AK500) is used, however any equivalent deacetylase assay is within the scope of the invention.
The Fluorescent Assay Buffer (FAB) contains: 25 mM Tris-HCl, pH 8.0, 137 mM NaCl, 2.7 mM KCl and 1 mM MgCl2. […]

[1] = system: p21 promoter (p21-luc) in H1299 cells; experiment: p21 promoter luciferase assay using stably transfected p21-luc in H1299 cells; type: cell-based; conditions: Homo sapiens, NCI-H1299
Description: The cell lines used are derived from H1299 (p21-luc). The growth media used is RPMI 1640, 10% FBS, 1% Pen/Strep and the selection media added is 500 μg/mL Geneticin (Gibco). The buffer used is 5× cell culture lysis buffer (Promega #E1531), stored at −20 C and the Luciferase assay reagent (Promega #E1483) is stored at −70° C. The results of the assay are analyzed using Wallac Software.
To assay Luciferase, the cell culture medium is removed after one day of growth and the flasks are washed once with PBS. The cells are trypsinized in 20 mL of media and the trypsin is neutralized. The cells are counted (0.5-1 mL) on a Vi-Cell XR cell viability analyzer.
Cells are then diluted to a concentration of approximately 5000 cells/200 μL, and 190 μL samples are aliquoted into each well of a Costar white 96-well TC treated white bottom plate with lid (Costar #3917). Plates are then incubated overnight at 37 C.
After a further day, a sample of the compound is added to the wells for assay.
After a further day, the cells are lysed and the luciferase activity of the lysed cells is measured. Each well is washed twice with PBS and 20 μL/well of 1× cell culture lysis buffer (dilute 5× to 1× in distilled water) is added to each well. The microtiter plates are then shaken on a microtiter plate shaker for 20 minutes at room temperate at a speed setting of 5-6. After removal from the shaker, 100 μL of Luciferase Reagent is added to each well. Each microtiter plate is then read on Wallac Envision instrument.

T1 sequence (Q13547 whole entry): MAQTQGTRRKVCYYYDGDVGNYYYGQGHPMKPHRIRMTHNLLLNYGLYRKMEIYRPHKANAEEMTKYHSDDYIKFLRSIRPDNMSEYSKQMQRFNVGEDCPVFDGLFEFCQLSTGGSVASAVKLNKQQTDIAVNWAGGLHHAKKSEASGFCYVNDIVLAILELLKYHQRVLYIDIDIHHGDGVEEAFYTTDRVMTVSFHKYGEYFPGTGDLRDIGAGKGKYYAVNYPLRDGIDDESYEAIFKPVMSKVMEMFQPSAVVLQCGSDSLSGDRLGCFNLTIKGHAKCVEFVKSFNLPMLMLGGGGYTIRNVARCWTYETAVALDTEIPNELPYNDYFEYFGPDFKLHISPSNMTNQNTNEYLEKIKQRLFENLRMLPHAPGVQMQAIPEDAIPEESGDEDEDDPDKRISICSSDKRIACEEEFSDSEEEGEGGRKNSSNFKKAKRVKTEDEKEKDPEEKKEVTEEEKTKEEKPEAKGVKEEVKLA

SMILES	IC50 (HDAC-1)	AC50 [1]
CN(C)c1ccc(C(=O)N2CCc3ccc(/C=C/C(=O)NO)cc3C2)cc1 [Example 53, (E)-3-[2-(4-Dimethylamino-benzoyl)-1,2,3,4-tetrahydro-isoquinolin-7-yl]-N-hydroxy-acrylamide]	< 100 nM	> 1000 nM
CN(C)c1ccc(C(=O)N2CCc3cc(CCC(=O)NO)ccc3C2)cc1 [Example 87, 3-[2-(4-Dimethylamino-benzoyl)-1,2,3,4-tetrahydro-isoquinolin-6-yl]-N-hydroxy-propionamide]	100 to 1000 nM	> 1000 nM
O=C(/C=C/c1ccc2c(c1)CN(C(=O)Cc1ccc(Cl)cc1)CC2)NO [Example 66, (E)-3-{2-[2-(4-Chloro-phenyl)-acetyl]-1,2,3,4-tetrahydro-isoquinolin-7-yl}-N-hydroxy-acrylamide]	< 100 nM	> 1000 nM
CCc1nn2ccccc2c1CCN1CCc2cc(/C=C/C(=O)NO)ccc2C1 [Example 72, (E)-3-{2-[2-(2-Ethyl-pyrazolo[1,5-a]pyridin-3-yl)-ethyl]-1,2,3,4-tetrahydro-isoquinolin-6-yl}-N-hydroxy-acrylamide]	< 100 nM	100 to 1000 nM
Cc1[nH]c2ccccc2c1CCN1CCc2ccc(/C=C/C(=O)NO)cc2CC1 [Example 80, (E)-N-Hydroxy-3-{3-[2-(2-methyl-1H-indol-3-yl)-ethyl]-2,3,4,5-tetrahydro-1H-benzo[d]azepin-7-yl}-acrylamide]	< 100 nM	> 1000 nM
Cc1ccccc1S(=O)(=O)N1Cc2ccc(/C=C/C(=O)NO)cc2C1 [Example 14, (E)-N-Hydroxy-3-[2-(toluene-2-sulfonyl)-2,3-dihydro-1H-isoindol-5-yl]-acrylamide]	100 to 1000 nM	> 1000 nM
CN(C)c1ccc(C(=O)N2CCc3ccc(CCC(=O)NO)cc3C2)cc1 [Example 90, 3-[2-(4-Dimethylamino-benzoyl)-1,2,3,4-tetrahydro-isoquinolin-7-yl]-N-hydroxy-propionamide]	100 to 1000 nM	> 1000 nM
Cn1cnc(S(=O)(=O)N2Cc3ccc(/C=C/C(=O)NO)cc3C2)c1 [Example 15, (E)-N-Hydroxy-3-[2-(1-methyl-1H-imidazole-4-sulfonyl)-2,3-dihydro-1H-isoindol-5-yl]-acrylamide]	100 to 1000 nM	> 1000 nM
Cc1[nH]c2ccccc2c1CCN1CCc2ccc(/C=C/C(=O)NO)cc2C1 [Example 39, (E)-N-Hydroxy-3-{2-[2-(2-methyl-1H-indol-3-yl)-ethyl]-1,2,3,4-tetrahydro-isoquinolin-7-yl}-acrylamide]	< 100 nM	100 to 1000 nM
O=C(/C=C/c1ccc2c(c1)CN(S(=O)(=O)c1ccc(C(F)(F)F)cc1)C2)NO [Example 10, (E)-N-Hydroxy-3-[2-(4-trifluoromethyl-benzenesulfonyl)-2,3-dihydro-1H-isoindol-5-yl]-acrylamide]	100 to 1000 nM	> 1000 nM
O=C(/C=C/c1ccc2c(c1)CN(Cc1ccccc1)CC2)NO [Example 51, (E)-3-(2-Benzyl-1,2,3,4-tetrahydro-isoquinolin-7-yl)-N-hydroxy-acrylamide]	100 to 1000 nM	> 1000 nM
O=C(/C=C/c1ccc2c(c1)CN(S(=O)(=O)Cc1ccccc1)C2)NO [Example 20, (E)-N-Hydroxy-3-(2-phenylmethanesulfonyl-2,3-dihydro-1H-isoindol-5-yl)-acrylamide]	100 to 1000 nM	> 1000 nM
CC(C)(C)C(=O)N1Cc2ccc(/C=C/C(=O)NO)cc2C1 [Example 3, (E)-3-[2-(2,2-Dimethyl-propionyl)-2,3-dihydro-1H-isoindol-5-yl]-N-hydroxy-acrylamide]	100 to 1000 nM	> 1000 nM
Cc1ccc(S(=O)(=O)N2Cc3ccc(/C=C/C(=O)NO)cc3C2)cc1 [Example 8, (E)-N-Hydroxy-3-[2-(toluene-4-sulfonyl)-2,3-dihydro-1H-isoindol-5-yl]-acrylamide]	< 100 nM	> 1000 nM
O=C(/C=C/c1ccc2c(c1)CN(S(=O)(=O)C1CC1)C2)NO [Example 24, (E)-3-(2-Cyclopropanesulfonyl-2,3-dihydro-1H-isoindol-5-yl)-N-hydroxy-acrylamide]	100 to 1000 nM	> 1000 nM
Cc1nn(C)c(C)c1CCN1CCc2ccc(/C=C/C(=O)NO)cc2C1 [Example 50, (E)-N-Hydroxy-3-{2-[2-(1,3,5-trimethyl-1H-pyrazol-4-yl)-ethyl]-1,2,3,4-tetrahydro-isoquinolin-7-yl}-acrylamide]	100 to 1000 nM	> 1000 nM
O=C(/C=C/c1ccc2c(c1)CCN(CCc1c[nH]c3ccccc13)C2)NO [Example 68, (E)-N-Hydroxy-3-{2-[2-(1H-indol-3-yl)-ethyl]-1,2,3,4-tetrahydro-isoquinolin-6-yl}-acrylamide]	< 100 nM	> 1000 nM
O=C(/C=C/c1ccc2c(c1)CN(S(=O)(=O)c1ccccc1)C2)NO [Example 5, (E)-3-(2-Benzenesulfonyl-2,3-dihydro-1H-isoindol-5-yl)-N-hydroxy-acrylamide]	100 to 1000 nM	> 1000 nM
Cc1ccc(CC(=O)N2CCc3ccc(/C=C/C(=O)NO)cc3C2)cc1 [Example 64, (E)-N-Hydroxy-3-[2-(2-p-tolyl-acetyl)-1,2,3,4-tetrahydro-isoquinolin-7-yl]-acrylamide]	< 100 nM	> 1000 nM
O=C(/C=C/c1ccc2c(c1)CN(CCC1CCCCC1)CC2)NO [Example 45, (E)-3-[2-(2-Cyclohexyl-ethyl)-1,2,3,4-tetrahydro-isoquinolin-7-yl]-N-hydroxy-acrylamide]	100 to 1000 nM	> 1000 nM
COc1ccc(S(=O)(=O)N2CCc3cc(/C=C/C(=O)NO)ccc3C2)cc1 [Example 82, (E)-N-Hydroxy-3-[2-(4-methoxy-benzenesulfonyl)-1,2,3,4-tetrahydro-isoquinolin-6-yl]-acrylamide]	100 to 1000 nM	> 1000 nM
CCCCS(=O)(=O)N1Cc2ccc(/C=C/C(=O)NO)cc2C1 [Example 19, (E)-3-[2-(Butane-1-sulfonyl)-2,3-dihydro-1H-isoindol-5-yl]-N-hydroxy-acrylamide]	100 to 1000 nM	> 1000 nM
O=C(/C=C/c1ccc2c(c1)CN(CCc1c[nH]nc1-c1ccccc1)CC2)NO [Example 47, (E)-N-Hydroxy-3-{2-[2-(3-phenyl-1H-pyrazol-4-yl)-ethyl]-1,2,3,4-tetrahydro-isoquinolin-7-yl}-acrylamide]	100 to 1000 nM	> 1000 nM
